The values below come from patent US20170260183A1, “BICYCLIC COMPOUNDS AS PEST CONTROL AGENTS” (BAYER CROPSCIENCE AKTIENGESELLSCHAFT, priority 2014, published 2017).

Read-outs that look alike come from different tables or passages of the source.

Data set [1] is described as follows: logP determination by HPLC on reversed-phase columns (OECD Guideline 117). It is filed as physicochemical. Particulars: reversed-phase (C18) HPLC column. The method, then: The logP values were determined in accordance with OECD Guideline 117 (EC Directive 92/69/EEC) by HPLC (high-performance liquid chromatography) using reversed-phase (RP) columns (C18), by the following methods: [a] The LC-MS determination in the acidic range is carried out at pH 2.7 with 0.1% aqueous formic acid and acetonitrile (contains 0.1% formic acid) as eluents; linear gradient from 10% acetonitrile to 95% acetonitrile. [b] LC-MS determination in the neutral range is effected at pH 7.8 with 0.001 molar aqueous ammonium hydrogencarbonate solution and acetonitrile as eluents; linear gradient from 10% acetonitrile to 95% acetonitrile. Calibration is effected using unbranched alkan-2-ones (having 3 to 16 carbon atoms) with known logP values (logP values determined on the basis of the retention times by linear interpolation between two successive alkanone s).

In a further data set the test system is Myzus persicae. Briefly: Myzus persicae - spray test. It is filed as in vivo. Conditions: foliar, 144 h, application rate 500 g/ha, after 6 days, sprayed Chinese cabbage leaf discs, 100% = all aphids killed, read-out: efficacy in %. The method, then: Myzus persicae—Spray Test • Solvent: 78 parts by weight of acetone • 1.5 parts by weight of dimethylformamide • Emulsifier: alkylaryl polyglycol ether […] To produce further test concentrations, the formulation is diluted with emulsifier-containing water. Discs of Chinese cabbage leaves (Brassica pekinensis) infested by all stages of the green peach aphid (Myzus persicae) are sprayed with an active ingredient formulation of the desired concentration. After 6 days, the efficacy in % is determined. 100% means that all the aphids have been killed and 0% means that none of the aphids have been killed.

Another data set concerns Aphis gossypii. The experiment in a line: Aphis gossypii - spray test. The format is in vivo. Conditions: application rate 4 ppm; after 6 days; sprayed cotton plants; 100% = all aphids killed. Here is the method:
Aphis gossypii—Spray Test • Solvent: 7 parts by weight of dimethylformamide • Emulsifier: alkylaryl polyglycol ether
To produce a suitable active ingredient formulation, 1 part by weight of active ingredient is dissolved with the specified parts by weight of solvent and made up with water containing an emulsifier concentration of 1000 ppm until the desired concentration is attained. To produce further test concentrations, the formulation is diluted with emulsifier-containing water. If the addition of ammonium salts or/and penetrants is required, these are each added in a concentration of 1000 ppm to the formulation solution.
Cotton plants (Gossypium hirsutum) heavily infested by the cotton aphid (Aphis gossypii) are sprayed with an active ingredient formulation of the desired concentration.
After 6 days, the kill in % is determined. 100% means that all the aphids have been killed and 0% means that none of the aphids have been killed.

The mark [2] stands for this setting: acidic range, pH 2.7, 0.1% aqueous formic acid and acetonitrile, read-out: logP[a].
[3] abbreviates: neutral range, pH 7.8, 0.001 molar aqueous ammonium hydrogencarbonate and acetonitrile, read-out: logP[b].

Turning to `Cc1ccc(-c2cnc3nn(-c4cccnc4)cc3c2)cc1SCC(F)(F)F` [Example 4, 5-[4-methyl-3-(2,2,2-trifluoroethylsulphanyl)phenyl]-2-(3-pyridyl)pyrazolo[3,4-b]pyridine], the chromatographic logP in data set [1] (setting [2]) is 3.14; in data set [1] (setting [3]), 3.1. In addition, in the data set on Myzus persicae, the pest or weed control at 500 g/ha stood at 100%.
The corresponding values for `CSCCC(=O)N(C)c1cnc2nn(-c3cccnc3)cc2c1` [Example 10, N-[2-(3-pyridyl)pyrazolo[3,4-b]pyridin-5-yl]-N-methyl-3-methylsulphanylpropanamide] are 1.16, 1.2 and 90%.
For `Cc1cc(F)c(-c2cnc3nn(-c4cccnc4)cc3c2)cc1[S+]([O-])CC(F)(F)F` (centres unmarked) [Example 3, 5-[2-fluoro-4-methyl-5-(2,2,2-trifluoroethylsulphinyl)phenyl]-2-(3-pyridyl)pyrazolo [3,4-b]pyridine], the chromatographic logP in data set [1] (setting [2]) amounted to 2.14; in data set [1] (setting [3]) it was 2.11. Moreover, the pest or weed control at 500 g/ha in the data set on Myzus persicae came out at 90%.
The matching figures for `Cc1cc(F)c(-c2cnc3nn(-c4cccnc4)cc3c2)cc1SCC(F)(F)F` [Example 2, 5-[2-Fluoro-4-methyl-5-(2,2,2-trifluoroethylsulphanyl)phenyl]-2-(3-pyridyl)pyrazolo[3,4-b]pyridine]: 3.44, 3.22 and 90%.
`CSCCC(=O)Nc1cnc2nn(-c3cccnc3)cc2c1` [Example 6, 3-methylsulphanyl-N-[2-(3-pyridyl)pyrazolo [3,4-b]pyridin-5-yl]propanamide]: the results for the chromatographic logP in data set [1] (setting [2]) and in data set [1] (setting [3]) were 1.15 and 1.21, respectively. In addition, the pest or weed control at 500 g/ha with Myzus persicae turned out to be 100%.
As for `CC(=O)Nc1cnc2nn(-c3cccnc3)cc2c1` [Example 1, 5-N-Acetylamino-2-(3-pyridyl)-pyrazolo[3,4-b]pyridine], the chromatographic logP in data set [1] (setting [3]) turned out to be 0.54. In the data set with Aphis gossypii, the “efficacy (kill in %)” value is on record as 95%.
In the case of `Cn1cc(-c2cnc3nn(-c4cccnc4)cc3c2)cn1` [Example 8, 5-(1-methylpyrazol-4-yl)-2-(3-pyridyl)pyrazolo[3,4-b]pyridine], the figures for the chromatographic logP in data set [1] (setting [2]) and in data set [1] (setting [3]) were 1 and 1.15, respectively. Also, in the data set with Myzus persicae, the pest or weed control at 500 g/ha was determined as 90%.
With `Cc1ccc(-c2cnc3nn(-c4cccnc4)cc3c2)cc1[S+]([O-])CC(F)(F)F` (centres unmarked) [Example 5, 5-[4-METHYL-3-(2,2,2-TRIFLUOROETHYLSULPHINYL)PHENYL]-2-(3-PYRIDYL)PYRAZOLO [3,4-B]PYRIDINE], the figures for the chromatographic logP in data set [1] (setting [2]) and in data set [1] (setting [3]) were 2.07 and 2.03, respectively. The pest or weed control at 500 g/ha with Myzus persicae came to 100%.
Turning to `CC(F)(F)CC(=O)Nc1cnc2nn(-c3cccnc3)cc2c1` [Example 7, 3,3-DIFLUORO-N-[2-(3-PYRIDYL)PYRAZOLO[3,4-B]PYRIDIN-5-YL]BUTANAMIDE], the chromatographic logP in data set [1] (setting [2]) and in data set [1] (setting [3]) was 1.22 each time. Also, the pest or weed control at 500 g/ha in the data set on Myzus persicae amounted to 90%.
